According to patent US8796201B2 (The Board of Trustees of the Leland Stanford Junior …, priority 2002, dated 2014):
“Also recorded” adds a separate entry of the source. Where no end group is shown, it is not given here.

Experiments:
[1] = tested on: α2-gliadin; assay: EPB2 activation and α2-gliadin digestion under acidic conditions; format: biochemical, wheat
Description: The gene for an endoprotease (EPB2; […] accession number U19384, nt 94-1963) from barley (Hordeum vulgare subsp. vulgare) was subcloned into a pET28b (Invitrogen) vector using BamH1 and EcoR1 insertion sites; the resulting plasmid was designated pMTB1. […] The proprotein was solubilized from the inclusion bodies using 7 M urea. The solubilized protein was purified on a Ni-NTA column. Auto-activation of proEPB2 to its mature, active form was achieved by addition of citrate-phosphate buffer, pH 3 (prepared by mixing 0.1 M sodium citrate and 0.2 M sodium phosphate). Under such acidic conditions, proEPB2 converts rapidly into a mature form with a molecular weight of 30 kDa (FIG. 2). By 72 hours, mature EPB2 undergoes autolysis. N-terminal sequencing yielded an N-terminal sequence beginning with VSDLP.
The pH optimum of proEPB2 activation and α2-gliadin digestion is 2.4-3.5, which can therefore provide a treatment for Celiac Sprue consisting of oral administration of proEPB2.

[2] = tested on: MX PEP (recombinant prolyl endopeptidase from Myxococcus xanthus); assay: 0.1 μM MX PEP in PBS buffer; details: 37° C.
[3] = tested on: FM PEP (recombinant prolyl endopeptidase from Flavobacterium meningosepticum); assay: 0.1 μM FM PEP in PBS buffer; details: 37° C.
[4] = tested on: chymotrypsin; assay: gastric and pancreatic proteases, chymotrypsin playing a major role
[5] = tested on: pepsin (1:100 w/w ratio), trypsin (1:100), chymotrypsin (1:100), elastase (1:500) and carboxypeptidase (1:100); assay: composite gastric/pancreatic enzymatic digestion
[6] = tested on: pepsin or any pancreatic enzyme; assay: pepsin or any pancreatic enzyme
[7] = tested on: SC PEP (recombinant prolyl endopeptidase from Sphingomonas capsulata); assay: 0.1 μM SC PEP in PBS buffer; details: 37° C., up to t=5 min
[8] = tested on: prolyl endopeptidase (PEP, specific activity 28 μU/pg) from Flavobacterium meningosepticum (US Biological, MA); assay: 27 ng/μl brush border membranes with exogenous prolyl endopeptidase from Flavobacterium meningosepticum; details: rat, up to one hour
[9] = tested on: rat brush border membrane (BBM) peptidases; format: in vitro ADME
Procedure: To investigate the digestion of gluten, liquid chromatography coupled mass spectroscopy analysis (LC-MS-MS) was utilized to investigate the pathways and associated kinetics of hydrolysis of immunodominant gliadin peptides treated with rat BBM preparations. Because the rodent is an excellent small animal model for human intestinal structure and function, rat BBM was chosen as a suitable model system for these studies.
BBM fractions were prepared from rat small intestinal mucosa as described in Ahnen et al. (1982) J. Biol. Chem. 257, 12129-35. […] No proline aminopeptidase (EC 3.4.11.5) or prolyl endopeptidase activity (PEP, EC 3.4.21.26) activity was detectable (<5 μU/μg). Alkaline phosphatase and sucrase were used as control BBM enzymes with activities of 66 μU/μg and 350 μU/μg, respectively.
BBM fractions were partially purified from the small intestinal mucosa of adult female rats maintained on an ad libitum diet of wheat-based standard rodent chow. Total protein content was determined by a modified method of Lowry with BSA as a standard. Alkaline phosphatase activity was determined with nitrophenyl phosphate. Sucrase activity was measured using a coupled glucose assay. […] PEP activity was determined continuously with 0.4 mM Z-Gly-Pro-pNA in PBS:H2O:dioxane (8:1.2:0.8) at 30° C. One unit is the consumption of 1 μmol substrate per minute.
Proteolysis with the BBM preparation was investigated using the peptide (SEQ ID NO:1) […], a product of chymotryptic digestion of α-9 gliadin (Arentz-Hansen et al. (2000) J. Exp. Med. 191, 603-12). […] It was subjected to BBM digestion, followed by LC-MS-MS analysis. A standard 50 μl digestion mixture contained 100 μM of synthetic peptide, 10 μM tryptophan and Cbz-tryptophan as internal standards, and resuspended BBM preparations with a final protein content of 27 ng/μl and exogenous proteins, as indicated, in phosphate buffered saline. After incubation at 37° C. for the indicated time, the enzymes were inactivated by heating to 95° C. for 3 minutes. The reaction mixtures were analyzed by LC-MS (SpectraSystem, ThermoFinnigan) using a C18 reversed phase column (Vydac 218TP5215, 2.1×150 mm) with water:acetonitrile:formic acid (0.1%):trifluoroacetic acid (0.025%) as the mobile phase (flow: 0.2 ml/min) and a gradient of 10% acetonitrile for 3 minutes, 10-20% for 3 minutes, 20-25% for 21 minutes followed by a 95% wash. Peptide fragments in the mass range of m/z=300-2000 were detected by electrospray ionization mass spectroscopy using a LCQ ion trap and their identities were confirmed by MSMS fragmentation patterns.
BBM fractions were prepared from rat small intestinal mucosa.

[10] = In vivo perfusion of peptides through rat jejunum; details: 15-20 cm jejunum segment, residence time 20 min
Procedure: FIG. 5. In vivo brush border membrane digestion of peptides.
In Vivo Endopeptidase Activity. An adult (female or male) rat was anesthetized and maintained at 36-37° C. during the entire surgical procedure. The peritoneal cavity was opened, and a small incision was made at the beginning and the end of a 15-20 cm jejunum segment. Polyethylene catheters were inserted and secured into the two ends. The input catheter was connected with a pump-driven syringe filled with a solution. The jejunum segment was perfused initially with PBS buffer to remove any residual debris at a flow rate of 0.4 ml/min. Purified peptide solutions (peptide concentration ranges from 25-100 μM) were then perfused at 0.4 ml/min through the jejunum segment with a 10-40 min residence time. In the case of a co-perfusion, the input catheter is connected with two simultaneous syringes, one with a peptide solution and the other with the prolyl endopeptidase solution (concentration ranges from 50-500 μU/μl). Fluid from the output catheter was collected into small centrifuge tubes in dry ice for subsequent analysis. The collected digestive products were analyzed by HPLC on a C18 column.

[11] = tested on: Lactobacillus helveticus PEP (Genbank ID#321529)
[12] = tested on: PQPQLPYPQPQLP; assay: Acceleration of brush border mediated digestion by exogenous endoproteases; format: biochemical, wheat; details: 27 ng/μl BBM, one hour
Procedure: FIG. 3. Dose dependent acceleration of brush border mediated digestion by exogenous endoproteases. […] This peptide was digested with 27 ng/μl brush border membranes, either alone, with increasing amounts of exogenous prolyl endopeptidase (PEP, specific activity 28 μU/pg) from Flavobacterium meningosepticum (US Biological, MA), or with additional elastase (E-1250, Sigma, Mo.), bromelain (B-5144, Sigma, Mo.) or papain (P-5306, Sigma, Mo.) (12). After one hour, the fraction of remaining (SEQ ID NO:4) […] (compared to the initial amount at t=0 min) was analyzed and quantified as in FIG. 1.
Alerted by the high proline content as a hallmark of most immunogenic gliadin peptides, a proline-specific endopeptidase was tested for the generation of new, free peptide termini. A literature search on available proteases led to the identification of prolyl endopeptidase (PEP) from Flavobacterium meningosepticum, which is specific for the C-terminal cleavage of prolines and readily available from recombinant sources (Yoshimoto et al. (1991) J. Biochem. 110, 873-8). The stable (SEQ ID NO:4) […] intermediate was digested with BBM in the presence of exogenous PEP. […] As little as 3.5 pg PEP/27 ng BBM protein was sufficient to double the extent of proteolysis of this gliadin fragment compared to incubation with BBM alone. In comparison, other commonly used proteases like papain, bromelain or porcine elastase were much less efficient, requiring 30-fold (papain) or 3000-fold (bromelain, elastase) higher amounts of enzyme compared to PEP to give similar results. Their proteolysis was restricted to the cleavage of the Gln^4-Leu^5 and/or Gln^11-Leu^12 bonds.
A similar preferential cleavage was found for (SEQ ID NO:1) QLQPFP^↓QPQLPY. This is in agreement with the preference of this prolyl endopeptidase for a second proline in the S2′ position (Bordusa and Jakubke (1998) Bioorg. Med. Chem. 6, 1775-80). Based on this P^↓XP motif and on the present data, up to 16 new, major cleavage sites can be predicted in the α2-gliadin sequence, a major source of immunodominant epitopes identified thus far upon PEP treatment. All of them are located in the critical N-terminal part. The internal cleavage by PEP can be expected to generate additional (otherwise inaccessible) substrates for DPP IV and DCP thereby complementing the natural assimilation process of gliadins by the BBM. Thus, the specificity of prolyl endopeptidase is ideally suited for detoxification of persistent immunoactive gliadin peptides in Celiac Sprue.

[13] = tested on: PQPQLPYPQPQLPY; assay: Hydrolysis of gliadin peptide by pancreatic proteases; format: biochemical, wheat; details: elastase at 100 ng/μl (non-physiological)
Description: Because BBM exopeptidases are restricted to N- or C-terminal processing, it was investigated if generation of additional free peptide ends by pancreatic enzymes would accelerate digestion.

[14] = kidney or brush border membranes

EPB2: cysteine endoprotease from barley (Hordeum vulgare), accession U19384
digestion of purified α2-gliadin ([1]; acidic conditions, mature form): efficiently digests purified α2-gliadin | time by which mature form undergoes autolysis ([1]; citrate-phosphate buffer, pH 3): ≤ 72 h

LQLQPFPQPQLPYPQPQLPYPQPQLPYPQPQPF
fragment found [2]: YPQPQPF, first_seen, t=5 min | fragment found [3]: (SEQ ID NO:12, aa 1-19) LQLQPFPQPQLPYPQPQLP, first_seen, t=1 min; also recorded: (SEQ ID NO:12, aa 1-14) LQLQPFPQPQLPYP, first_seen, t=1 min; also recorded: (SEQ ID NO:12, aa 1-12) LQLQPFPQPQLP, first_seen, t=1 min; also recorded: QPQPF, first_seen, t=1 min | not cleaved [4]: remained intact despite prolonged exposure to proteases | not cleaved [5]: stable product of gastric and pancreatic digestion

PQPQLPYPQPQLP
not cleaved [6]: resistant to proteolysis by pepsin or any pancreatic enzyme | cleaved bond ([2]; up to t=5 min): P-Y, major, t=5 min | cleaved bond [7]: P-Q, t=5 min; also recorded: P-Y, t=5 min | cleaved bond ([3]; up to t=5 min): P-Q, major, t=5 min | cleaved bond [8]: Pro8-Gln9, major; also recorded: Pro6-Tyr7, minor

QLQPFPQPQLPY
apparent half life of disappearance of parent peptide [9, 14]: 35 min | fraction proteolyzed in the perfusion experiment [10]: > 90%

RPKHPIKHQ
cleaved bond [11]: P-I

RRLIEDNEYTARG
clearance of digestive intermediates [9]: cleared completely within one hour | apparent half life of disappearance of parent peptide [9, 14]: 10 min

WQIPEQSR
half-life of disappearance [9, 14]: ~60 min

YQEPVLGPVRGPFPIIV
cleaved bond [11]: P-V and P-I

bromelain [reference compound]
higher amount of enzyme compared to PEP to give similar results [12]: 3000 fold

chymotrypsin
hydrolysis of PQPQLPYPQPQLPY [13]: No proteolysis was detected

elastase: porcine elastase (E-1250, Sigma), pancreatic protease [reference compound]
hydrolysis of PQPQLPYPQPQLPY [13]: capable of hydrolyzing | higher amount of enzyme compared to PEP to give similar results [12]: 3000 fold

proEPB2: inactive proprotein form of barley endoprotease EPB2
pH optimum of proEPB2 activation and α2-gliadin digestion [1]: 2.4-3.5

trypsin
hydrolysis of PQPQLPYPQPQLPY [13]: No proteolysis was detected

B1: papain: papain (P-5306, Sigma) (protein, UniProt P00784 134-345, looked up)
Papain: IPEYVDWRQKGAVTPVKNQGSCGSCWAFSAVVTIEGIIKIRTGNLNEYSEQELLDCDRRSYGCNGGYPWSALQLVAQYGIHYRNTYPYEGVQRYCRSREKGPYAAKTDGVRQVQPYNEGALLYSIANQPVSVVLEAAGKDFQLYRGGIFVGPCGNKVDHAVAAVGYGPNYILIKNSWGTGWGENGYIRIKRGTGNSYGVCGLYTSSFYPVKN
higher amount of enzyme compared to PEP to give similar results [12]: 30 fold
